Assay results: PMC6597039, “Bioactive secondary metabolites from new endophytic fungus Curvularia. sp isolated from Rauwolfia macrophylla” (PLoS ONE, 2019)
Converted amounts (≈) assume the structure as drawn.

Legend:
[1] = test system: Micrococcus luteus (DSMZ1605); assay: In vitro antibacterial assay, micro-dilution MIC; format: cell-based; details: 30 °C, 24 h
[2] = test system: Staphylococcus warneri (DSMZ20036); assay: In vitro antibacterial assay, micro-dilution MIC; format: cell-based; details: 37 °C, 24 h
[3] = test system: Escherichia coli (DSMZ1058); assay: In vitro antibacterial assay, micro-dilution MIC; format: cell-based; details: Escherischia coli, 37 °C, 24 h
[4] = test system: Pseudomonas agarici (DSMZ11810); assay: In vitro antibacterial assay, micro-dilution MIC; format: cell-based; details: 30 °C, 24 h
[5] = DPPH free radical scavenging assay; details: Table 3, unit not given in the table (μM); read-out: EC50 Antioxidant activity (DPPH•)
[6] = ABTS+ free radical scavenging assay; details: Table 3, unit not given in the table (μM); read-out: EC50 Antiradical activity (ABTS+)
Electric eel AChE = Electric eel AChE (Electrophorus electricus, UniProt O42275); assay: biochemical; details: substrate ATCI, pH 8.0, 25 °C, read-out: IC50 acetylcholinesterase inhibition
Electric eel AChE, sequence (O42275 24-633): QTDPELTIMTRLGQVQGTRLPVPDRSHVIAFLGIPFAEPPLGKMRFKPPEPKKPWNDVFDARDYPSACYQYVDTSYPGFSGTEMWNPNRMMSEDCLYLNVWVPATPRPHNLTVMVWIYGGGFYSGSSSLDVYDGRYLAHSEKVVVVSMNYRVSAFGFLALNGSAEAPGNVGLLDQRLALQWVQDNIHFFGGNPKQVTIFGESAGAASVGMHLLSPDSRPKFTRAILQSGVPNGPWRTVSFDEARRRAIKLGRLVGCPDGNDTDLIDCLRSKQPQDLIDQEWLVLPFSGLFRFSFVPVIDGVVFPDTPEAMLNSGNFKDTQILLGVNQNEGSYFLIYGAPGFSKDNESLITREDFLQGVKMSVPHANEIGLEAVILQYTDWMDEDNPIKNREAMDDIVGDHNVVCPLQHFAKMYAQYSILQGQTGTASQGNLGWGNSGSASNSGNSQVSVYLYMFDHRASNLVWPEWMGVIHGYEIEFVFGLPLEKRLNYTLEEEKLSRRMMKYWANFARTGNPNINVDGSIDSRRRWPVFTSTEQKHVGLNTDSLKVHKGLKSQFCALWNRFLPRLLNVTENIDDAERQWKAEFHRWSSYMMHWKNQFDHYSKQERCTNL

[7] = test system: Trypanosoma cruzi trypomastigotes; design: method as in PMID 28572816; details: cited from earlier work
mucosal-type mast cells = details: cited from earlier work
[8] = test system: Escherichia coli, Micrococcus luteus, Pseudomonas agarici and Staphylococcus warneri; assay: In vitro antibacterial assay, MIC over all the tested bacterial strains; format: cell-based; details: range over four bacterial strains; read-out: MIC ranging over all the tested bacterial strains
p53-HDM2 interaction = test system: p53-HDM2 interaction; design: method as in PMID 16246554; details: cited from earlier work

SMILES	MIC [1] [µg/mL]	MIC [2] [µg/mL]	MIC [3] [µg/mL]	MIC [4] [µg/mL]	EC50 [5] [µM]	EC50 [6] [µM]	IC50 (Electric eel AChE) [nM]	IC50 anti-Trypanosoma cruzi activity against trypomastigotes [7] [µg/mL]	effect on the activity of mucosal-type mast cells (mucosal-type mast cells)	MIC [8] [µg/mL]	inhibition of p53-HDM2 interaction (p53-HDM2 interaction)
CNC(C)C1CCC(N)C(OC2C(N)CC(N)C(OC3OCC(C)(O)C(NC)C3O)C2O)O1 (stereo not drawn) [Gentamicin, reference compound]	0.01 (≈ 0.0209 µM)	0.01 (≈ 0.0209 µM)	0.01 (≈ 0.0209 µM)	0.01 (≈ 0.0209 µM)							
Cc1cc(C(C)(C)C)c(O)c(C(C)(C)C)c1 [BHT, butylated hydroxytoluene, reference compound]					0.46	0.06					
CC(C)[C@@H](C)/C=C/[C@@H](C)[C@H]1CC[C@H]2C3=CC=C4C[C@@H](O)CC[C@]4(C)[C@H]3CC[C@]12C [Compound 3, ergosterol]					1.09 ± 0.02	0.83 ± 0.02	1520	51.3 (≈ 129 µM)	inhibitory effect		
C=C(C(=O)O)C(CCCCCC)C(=O)O (stereo not drawn) [Compound 2, hexylitaconic acid]	0.29 (≈ 1.35 µM)	0.58 (≈ 2.71 µM)	0.58 (≈ 2.71 µM)	0.29 (≈ 1.35 µM)	0.56 ± 0.02	0.88 ± 0.02	1540			0.17 to 0.58 (≈ 0.793 to 2.71 µM)	inhibitor
COc1ccc(O)c(C(C)(C)C)c1 [BHA, butylated hydroxyanisole, reference compound]					0.13	0.01					
O=C1CC(O)C(CO)O1 (stereo not drawn) [Compound 1, 2'-deoxyribolactone]	0.32 (≈ 2.42 µM)	0.17 (≈ 1.29 µM)	0.3 (≈ 2.27 µM)	0.19 (≈ 1.44 µM)	0.66 ± 0.02	0.49 ± 0.02	1930			0.17 to 0.58 (≈ 1.29 to 4.39 µM)	
